We go through ten molecules from US20240317696A1, “ALKYL CARBOXYLIC ACID COMPOUNDS AND APPLICATION THEREOF” (MEDSHINE DISCOVERY INC., priority 2021, published 2024).

The target of data set [1] is sGC (Homo sapiens (Human), UniProt Q02153). Description: cGMP expression test based on LNCap cells (sGC stimulatory activity). The data set is classed as cell-based. As to conditions: ODQ present; for MEC: Minimum effective concentration required to stimulate cGMP production in LNCap cells (greater than three times the baseline value); for EC50: cGMP production in LNCap cells. The protocol: I. cGMP Expression Test Based on InCap Cells
Chain of sGC (Q02153 whole entry): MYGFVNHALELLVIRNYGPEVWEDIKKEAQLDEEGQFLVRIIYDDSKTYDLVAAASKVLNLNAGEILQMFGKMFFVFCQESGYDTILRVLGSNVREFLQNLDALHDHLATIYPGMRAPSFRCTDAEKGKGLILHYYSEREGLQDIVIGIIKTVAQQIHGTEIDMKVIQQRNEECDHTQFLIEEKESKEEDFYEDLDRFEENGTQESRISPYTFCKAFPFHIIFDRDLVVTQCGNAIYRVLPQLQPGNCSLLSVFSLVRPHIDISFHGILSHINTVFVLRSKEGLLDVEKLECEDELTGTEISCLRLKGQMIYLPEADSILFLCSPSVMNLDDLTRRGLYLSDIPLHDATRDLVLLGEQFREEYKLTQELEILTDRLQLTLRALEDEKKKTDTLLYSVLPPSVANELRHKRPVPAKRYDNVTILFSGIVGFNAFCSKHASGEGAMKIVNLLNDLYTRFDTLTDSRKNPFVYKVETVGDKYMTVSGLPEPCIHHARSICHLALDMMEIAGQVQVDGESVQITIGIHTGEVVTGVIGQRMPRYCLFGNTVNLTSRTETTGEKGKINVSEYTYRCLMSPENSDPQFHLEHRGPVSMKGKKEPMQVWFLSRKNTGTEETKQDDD
Chain of sGC (Q02108 whole entry partner): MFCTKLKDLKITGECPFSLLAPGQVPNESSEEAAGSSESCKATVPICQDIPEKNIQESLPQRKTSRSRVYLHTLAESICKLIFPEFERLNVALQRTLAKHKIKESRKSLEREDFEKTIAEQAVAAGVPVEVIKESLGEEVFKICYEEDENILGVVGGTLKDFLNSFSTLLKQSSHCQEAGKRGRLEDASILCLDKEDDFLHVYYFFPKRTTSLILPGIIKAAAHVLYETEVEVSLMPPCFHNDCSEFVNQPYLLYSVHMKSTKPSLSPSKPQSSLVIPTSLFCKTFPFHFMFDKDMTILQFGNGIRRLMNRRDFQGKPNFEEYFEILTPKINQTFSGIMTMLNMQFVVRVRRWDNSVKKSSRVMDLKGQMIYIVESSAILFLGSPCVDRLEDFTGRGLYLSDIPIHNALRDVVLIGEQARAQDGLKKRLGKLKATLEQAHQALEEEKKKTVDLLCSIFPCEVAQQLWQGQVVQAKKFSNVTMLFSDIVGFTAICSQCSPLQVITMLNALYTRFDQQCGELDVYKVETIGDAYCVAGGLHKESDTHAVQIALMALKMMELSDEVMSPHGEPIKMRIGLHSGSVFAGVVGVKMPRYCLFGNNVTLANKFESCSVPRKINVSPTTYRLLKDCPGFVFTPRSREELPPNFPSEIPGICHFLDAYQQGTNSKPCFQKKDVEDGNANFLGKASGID
(1) The compound was diluted to a concentration of 10 mM using DMSO.
(2) A serial dilution of the compound was performed, resulting in 10 different concentration levels of each compound. 100 nL of each diluted compound was added to a 96-well plate.
3) Preparation of LNCap Cells
(1) LNCap culture medium: RPMI1640 supplemented with 10% fetal bovine serum (FBS) and 1% double antibody
(9) Assay buffer was added, and the cell concentration was adjusted to 3×10^6/mL.
4) Preparation and Addition of ODQ Solution
(1) 10 mM ODQ stock solution was diluted at a ratio of 1:1000 and added to the cell solution.
(2) After thorough mixing, the solution was added to a microplate at 10 μL per well.
5) Preparation of cGMP Standard Curve
(1) 1 mM cGMP stock solution was diluted to 10 μM using assay buffer. 11 concentration gradients were created through 4-fold serial dilutions.
(2) The diluted cGMP was added to the microplate at 10 μL per well.
6) Addition of Assay Reagents and Plate Reading
(1) cGMP-D2 was transferred to a 384-well plate at 5 μL per well. Anti-cGMP cryptate was transferred to a […] at 5 μL per well. Centrifugation was performed at 1500 rpm for 1 minute.
(2) Incubation was carried out at room temperature for 1 hour.
(3) The plates were read using envision at 665/615 wavelengths.
(1) cGMP standard curve: A standard curve was generated using GraphPad Prism, based on the ratio of cGMP concentration to the 665/615 wavelength values.
(2) Conversion of HTRF (homogeneous time-resolved fluorescence) ratio (665/615) to cGMP concentration: In GraphPad Prism, the HTRF ratio (665/615) was copied to the ratio column of the cGMP standard curve. The analysis “Log inhibitor vs response-variable slope” was run, and the “interpolate” option was selected to convert the HTRF ratio (665/615) into cGMP concentration.
(3) Compound activation curve: A curve was generated using the “Log agonist vs response-variable slope” analysis method in GraphPad Prism, based on the converted cGMP concentration and compound concentration.

Data set [2] concerns hepatocytes. Kind of data set: In vitro hepatocyte metabolic stability, mouse. Type of data set: in vitro ADME. As to conditions: test compound 1 μM, 0.5×10^6 cells/mL. Here is the method: (§1) 1. Experimental Objective: The Aim of the Study was to Assess the Stability of the Compounds in Hepatocytes of Different Species.
(§2) A variety of 96-well precipitation plates were prepared and labeled as T0, T15, T30, T60, T90, T0-MC, T90-MC, and blank matrix, respectively. Revival medium and incubation medium were taken in advance and pre-warmed in a 37° C. water bath. Hepatocytes of different species, stored in a liquid nitrogen tank, were taken and immediately immersed in a 37° C. water bath for approximately 90 seconds. Once partially thawed, cells were transferred to centrifuge tubes containing 40 mL of revival medium, and gently inverted to resuspend the cells in the revival medium. At room temperature, cells were centrifuged at 100×g for 5 minutes. The supernatant was discarded, and the hepatocytes were resuspended in an appropriate volume of incubation medium. Viability was calculated using trypan blue staining. 198 μL of hepatocyte suspension (0.51×10^6 cells/mL) was added to pre-warmed incubation plates. For the control group, 198 μL of hepatocyte-free incubation medium was added to T0-MC and […] plates. All plates were pre-incubated for 10 minutes in a 37° C. incubator. […] All samples were mixed well and analyzed using LC/MS/MS methods.

For data set [3], the system named is hepatocytes. Kind of data set: In vitro hepatocyte metabolic stability, rat. The data set is classed as in vitro ADME. As to conditions: test compound 1 μM, 0.5×10^6 cells/mL. Here is the method:
as §1, §2

The test system of data set [4] is hepatocytes. Description: In vitro hepatocyte metabolic stability, human. The data set is classed as in vitro ADME. As to conditions: test compound 1 μM, 0.5×10^6 cells/mL. The protocol:
as §1, §2

The nature of data set [5]: In vivo pharmacokinetic property study in male Sprague Dawley rats. The protocol: Experimental objective: The aim of this study was to determine the pharmacokinetic parameters of the compound in male Sprague Dawley rats.
Sprague Dawley rats (male, 200 to 300 g, 7 to 9 weeks old, procured from Shanghai SLAC)
For this project, four male Sprague Dawley rats were used. Two rats in one group were administered the compound intravenously at a dosage of 2 mg/kg and a concentration of 0.4 mg/mL. Two rats in another group were administered the compound orally at a dosage of 10 mg/kg and a concentration of 1 mg/mL. Plasma samples were collected 0.083 (intravenous group only), 0.25, 0.5, 1, 2, 4, 6, 8, and 24 hours after administration. The collected samples were then analyzed using LC-MS/MS and data were collected. The collected analytical data were processed using Phoenix WinNonlin 6.3 software to calculate relevant pharmacokinetic parameters.

The EC50 is the concentration needed to bring the measured effect to its halfway point. A low value points to higher potency in that assay. For the molecule `C[C@H]([C@H](C(=O)Nc1cc(C(CC(=O)O)C2CCCC2)ccc1Cl)c1ccc(Cl)cc1)C(F)(F)F` (stereo partly drawn) [WX001], in data set [1], the MEC is listed as 4.20 nM and the EC50 came out at 6.62 nM.

`Cc1ccc(C(CC(=O)O)C23CC(F)(C2)C3)cc1NC(=O)C(c1ccc(Cl)cc1)[C@@H](C)C(F)(F)F` (stereo partly drawn) [WX010]: in data set [1], the MEC came to 1.76 nM and a half-maximal effect (EC50) was put at 2.16 nM.

With `Cc1ccc([C@@H](CC(=O)O)C23CC(F)(C2)C3)cc1NC(=O)[C@H](c1ccc(Cl)cc1)[C@@H](C)C(F)(F)F` [WX011], in data set [1], the MEC is reported as 1.39 nM and the midpoint of the response, the EC50, lay at 1.75 nM.

On to `C[C@H]([C@H](C(=O)Nc1cc(C(CC(=O)O)C23CC(F)(C2)C3)ccc1F)c1ccc(Cl)cc1)C(F)(F)F` (stereo partly drawn) [WX007], for which, in data set [1], the MEC is on record as 0.65 nM and the 50% effective concentration (EC50) was 3.28 nM.

With `C[C@H]([C@H](C(=O)Nc1cc([C@@H](CC(=O)O)[C@H]2CCCO2)ccc1Cl)c1ccc(Cl)cc1)C(F)(F)F` [WX016], in data set [1], the MEC was 27.85 nM and the EC50 worked out at 145 nM.

For the molecule `COC12CC(C(CC(=O)O)c3ccc(Cl)c(NC(=O)[C@H](c4ccc(Cl)cc4)[C@@H](C)C(F)(F)F)c3)(C1)C2` (stereo partly drawn) [WX013], in data set [1], the MEC was 1.22 nM and the midpoint of the response, the EC50, lay at 3.5 nM.

In data set [1], `C[C@H]([C@H](C(=O)Nc1cc([C@@H](CC(=O)O)C2CCCC2)ccc1Cl)c1ccc(Cl)cc1)C(F)(F)F` [WX002] came in with an MEC of 2.20 nM and an EC50 of 1.76 nM.

In the case of `COC12CC([C@H](CC(=O)O)c3ccc(Cl)c(NC(=O)[C@H](c4ccc(Cl)cc4)[C@@H](C)C(F)(F)F)c3)(C1)C2` [WX014], in data set [1], the MEC is given as 0.42 nM and the EC50 stood at 1.65 nM.

In data set [1], `C[C@H]([C@H](C(=O)Nc1cc(C(CC(=O)O)C23CC(F)(C2)C3)ccc1Cl)c1ccc(Cl)cc1)C(F)(F)F` (stereo partly drawn) [WX004] yielded an MEC of 0.61 nM and an EC50 of 3.74 nM.

Usually AUC stands for the area under the concentration-time curve, a measure of exposure. Read a high AUC as high exposure. One may read the Vdss as a proportionality between amount in the body and measured concentration, not a real space. The low end stands for little distribution into tissue, the high end for wide distribution into tissue. On to `C[C@H]([C@H](C(=O)Nc1cc([C@@H](CC(=O)O)C23CC(F)(C2)C3)ccc1Cl)c1ccc(Cl)cc1)C(F)(F)F` [WX005], for which, in data set [1], the MEC came to 0.27 nM and the midpoint of the response, the EC50, lay at 2.06 nM. In data set [2], the “CLint (liver)” value is recorded as 610.4 mL/min/kg and the T1/2 amounted to 0.45 h. In data set [3], the “CLint (liver)” value is 154.7 mL/min/kg and the T1/2 stood at 0.698 h. In data set [4], the “CLint (liver)” value was 49.7 mL/min/kg and the T1/2 worked out at 1.29 h. Also, in data set [5] (iv 2 mg/kg), the AUC amounted to 11.228 µM·h, the Cl was found to be 5.47 mL/min/kg, the T1/2 turned out to be 3.83 h and the Vdss came to 1.27 L/kg. In data set [5] (po 10 mg/kg), this molecule returned an AUC of 17.423 µM·h and a T1/2 of 6.92 h. Besides, in data set [5] (po 10 mg/kg vs iv 2 mg/kg), the “% F” value was 42.1%.
